In PubChem BioAssay (NCI):
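48-hour exposure; five concentrations; linearly interpolated endpoints. TGI: concentration producing complete growth inhibition.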

What was measured:
Test in all cases: NCI tumour cell line growth inhibition, 48 h
KM20L2 colon = test system: KM20L2 colon
XF 498 CNS = test system: XF 498 CNS
786-0 renal = test system: 786-0 renal
M19-MEL melanoma = test system: M19-MEL melanoma
U251 CNS = test system: U251 CNS
HOP-18 NSCLC = test system: HOP-18 NSCLC
DLD-1 colon = test system: DLD-1 colon
CCRF-CEM leukemia = test system: CCRF-CEM leukemia
SNB-78 CNS = test system: SNB-78 CNS
SN12C renal = test system: SN12C renal
DMS 114 small cell lung = test system: DMS 114 small cell lung
NCI/ADR-RES ovarian = test system: NCI/ADR-RES ovarian
T-47D breast = test system: T-47D breast
RXF-631 renal = test system: RXF-631 renal
DMS 273 small cell lung = test system: DMS 273 small cell lung
LXFL 529 NSCLC = test system: LXFL 529 NSCLC

SMILES: CCSc1nc2sc(C)c(C)c2c(=O)n1-c1ccc(C(=O)O)cc1
- TGI (KM20L2 colon): > 100 µM
- TGI (XF 498 CNS): > 100 µM
- TGI (786-0 renal): > 100 µM
- TGI (M19-MEL melanoma): > 100 µM
- TGI (U251 CNS): > 100 µM
- TGI (HOP-18 NSCLC): 48.6 µM
- TGI (DLD-1 colon): > 100 µM
- TGI (CCRF-CEM leukemia): > 100 µM
- TGI (SNB-78 CNS): > 100 µM
- TGI (SN12C renal): > 100 µM
- TGI (DMS 114 small cell lung): > 100 µM

SMILES: Cn1c(N2CCCC2)c(C=O)c(=O)n(C)c1=O
- TGI (786-0 renal): > 100 µM
- TGI (NCI/ADR-RES ovarian): > 100 µM
- TGI (U251 CNS): > 100 µM
- TGI (CCRF-CEM leukemia): > 100 µM
- TGI (SN12C renal): > 100 µM
- TGI (T-47D breast): > 100 µM

SMILES: Cc1cc(Cc2cc(C)c(NC(=O)C(=O)C3C(=O)NC(=S)NC3=O)c(C(C)C)c2)cc(C(C)C)c1NC(=O)C(=O)C1C(=O)NC(=S)NC1=O
- TGI (RXF-631 renal): > 100 µM
- TGI (KM20L2 colon): > 100 µM
- TGI (DMS 273 small cell lung): > 100 µM
- TGI (786-0 renal): > 100 µM
- TGI (M19-MEL melanoma): > 100 µM
- TGI (U251 CNS): > 100 µM
- TGI (HOP-18 NSCLC): > 100 µM
- TGI (DLD-1 colon): > 100 µM
- TGI (LXFL 529 NSCLC): > 100 µM
- TGI (CCRF-CEM leukemia): > 100 µM
- TGI (SNB-78 CNS): > 100 µM
- TGI (SN12C renal): > 100 µM
- TGI (DMS 114 small cell lung): > 100 µM

SMILES: CN(C)C(=O)CC(C(=O)O)c1c[nH]c2ccccc12 (stereo not drawn)
- TGI (RXF-631 renal): > 100 µM
- TGI (KM20L2 colon): > 100 µM
- TGI (DMS 273 small cell lung): > 100 µM
- TGI (786-0 renal): > 100 µM
- TGI (M19-MEL melanoma): > 100 µM
- TGI (U251 CNS): > 100 µM
- TGI (DLD-1 colon): > 100 µM
- TGI (LXFL 529 NSCLC): > 100 µM
- TGI (CCRF-CEM leukemia): > 100 µM
- TGI (SN12C renal): > 100 µM
- TGI (DMS 114 small cell lung): > 100 µM

SMILES: COc1ccc(-c2cc(-c3ccc(Nc4ccnc5cc(C(F)(F)F)ccc45)cc3)[nH]c(=O)c2C#N)c2ccccc12
- TGI (786-0 renal): > 100 µM
- TGI (NCI/ADR-RES ovarian): > 100 µM
- TGI (U251 CNS): > 36.4 µM
- TGI (CCRF-CEM leukemia): > 56.8 µM
- TGI (SN12C renal): > 100 µM
- TGI (T-47D breast): > 60.5 µM

SMILES: O=S(=O)(O)CCS
- TGI (786-0 renal): > 100 µM
- TGI (NCI/ADR-RES ovarian): > 100 µM
- TGI (U251 CNS): > 100 µM
- TGI (CCRF-CEM leukemia): > 100 µM
- TGI (SN12C renal): > 100 µM
- TGI (T-47D breast): > 100 µM

SMILES: O=c1c2cc(Br)ccc2oc2nc3n(c(=O)c12)CCCS3
- TGI (786-0 renal): > 100 µM
- TGI (NCI/ADR-RES ovarian): > 100 µM
- TGI (U251 CNS): > 100 µM
- TGI (CCRF-CEM leukemia): > 100 µM
- TGI (SN12C renal): > 100 µM
- TGI (T-47D breast): > 100 µM

SMILES: Oc1ccc2c(c1)OCC(O)(c1ccccc1O)C2 (stereo not drawn)
- TGI (786-0 renal): > 100 µM
- TGI (NCI/ADR-RES ovarian): > 100 µM
- TGI (U251 CNS): > 100 µM
- TGI (CCRF-CEM leukemia): > 100 µM
- TGI (SN12C renal): > 100 µM
- TGI (T-47D breast): > 100 µM

SMILES: CC1=C(C(=O)OCCO[N+](=O)[O-])C(c2ccccc2C(F)(F)F)C(C(=O)OC(C)C)=C(C)N1 (stereo not drawn)
- TGI (786-0 renal): 36.6 µM
- TGI (NCI/ADR-RES ovarian): 57.8 µM
- TGI (U251 CNS): 29.1 µM
- TGI (CCRF-CEM leukemia): > 100 µM
- TGI (SN12C renal): 36.8 µM
- TGI (T-47D breast): > 100 µM

SMILES: NC(=O)c1n[nH]n(-c2ccccc2)c1=O
- TGI (786-0 renal): > 100 µM
- TGI (NCI/ADR-RES ovarian): > 100 µM
- TGI (U251 CNS): > 100 µM
- TGI (CCRF-CEM leukemia): > 100 µM
- TGI (SN12C renal): > 100 µM
- TGI (T-47D breast): > 100 µM

SMILES: O=C(O)c1c(CC(Cc2ccc3c(c2)CCCC3)C(=O)O)ccc2c1CCCC2 (stereo not drawn)
- TGI (786-0 renal): > 100 µM
- TGI (NCI/ADR-RES ovarian): > 100 µM
- TGI (U251 CNS): > 100 µM
- TGI (CCRF-CEM leukemia): > 100 µM
- TGI (SN12C renal): > 100 µM
- TGI (T-47D breast): > 100 µM

SMILES: CCCCCCCCCCCCCCCCCCNc1ccn(C2OC(COP(=O)(O)O)C(O)C2O)c(=O)n1 (stereo not drawn)
- TGI (786-0 renal): > 100 µM
- TGI (NCI/ADR-RES ovarian): > 100 µM
- TGI (U251 CNS): > 100 µM
- TGI (CCRF-CEM leukemia): > 100 µM
- TGI (SN12C renal): > 100 µM
- TGI (T-47D breast): > 100 µM

SMILES: COc1ccc(/C=C2\CN(C)CC3=C2OC(N)=C(C#N)C3c2ccc(OC)cc2)cc1 (stereo not drawn)
- TGI (786-0 renal): > 100 µM
- TGI (NCI/ADR-RES ovarian): > 100 µM
- TGI (U251 CNS): > 100 µM
- TGI (CCRF-CEM leukemia): 30.2 µM
- TGI (SN12C renal): > 100 µM
- TGI (T-47D breast): > 100 µM

SMILES: N#CCCC(CC#N)N1CCN(CCO)CC1 (stereo not drawn)
- TGI (786-0 renal): > 100 µM
- TGI (NCI/ADR-RES ovarian): > 100 µM
- TGI (U251 CNS): > 100 µM
- TGI (CCRF-CEM leukemia): > 100 µM
- TGI (SN12C renal): > 100 µM
- TGI (T-47D breast): > 100 µM

SMILES: COC(=O)[C@H]1[C@H](C(=O)OC)[C@@H](C)c2c(ccc3c2[nH]c2ccccc23)[C@@H]1C
- TGI (786-0 renal): 61.5 µM
- TGI (NCI/ADR-RES ovarian): > 100 µM
- TGI (U251 CNS): > 100 µM
- TGI (CCRF-CEM leukemia): > 100 µM
- TGI (SN12C renal): 33.5 µM
- TGI (T-47D breast): > 100 µM

SMILES: Cc1cc2c(cc1O)CC[C@@H]1[C@@H]2CC[C@]2(C)[C@@H](O)CC[C@@H]12
- TGI (786-0 renal): 30.9 µM
- TGI (NCI/ADR-RES ovarian): 27.2 µM
- TGI (U251 CNS): 18.2 µM
- TGI (CCRF-CEM leukemia): 27.4 µM
- TGI (SN12C renal): 31.2 µM
- TGI (T-47D breast): 38.9 µM

SMILES: C=CCN1C(=O)/C(=C/c2ccc(C)cc2)N=C1SC/C=C/C
- TGI (786-0 renal): > 100 µM
- TGI (NCI/ADR-RES ovarian): > 100 µM
- TGI (U251 CNS): 77.6 µM
- TGI (CCRF-CEM leukemia): > 100 µM
- TGI (SN12C renal): > 100 µM
- TGI (T-47D breast): 83.3 µM

SMILES: O=c1nc2n(cc1/C=C\Br)C1CC(O)C(CO2)O1 (stereo not drawn)
- TGI (786-0 renal): > 100 µM
- TGI (NCI/ADR-RES ovarian): > 100 µM
- TGI (U251 CNS): > 100 µM
- TGI (CCRF-CEM leukemia): > 100 µM
- TGI (SN12C renal): > 100 µM
- TGI (T-47D breast): > 100 µM

SMILES: C/C(Cl)=N\OC(=O)Nc1ccccc1C(F)(F)F
- TGI (786-0 renal): 38.6 µM
- TGI (NCI/ADR-RES ovarian): 47.5 µM
- TGI (U251 CNS): > 100 µM
- TGI (CCRF-CEM leukemia): 53 µM
- TGI (SN12C renal): > 100 µM
- TGI (T-47D breast): > 100 µM

SMILES: O=C(CCCCCCCCC(=O)NN1C(=O)/C(=C\c2ccc(O)c(O)c2)SC1c1c(O)ccc2ccccc12)NN1C(=O)C(=Cc2ccc(O)c(O)c2)SC1c1c(O)ccc2ccccc12 (stereo not drawn)
- TGI (786-0 renal): > 70 µM
- TGI (NCI/ADR-RES ovarian): > 100 µM
- TGI (U251 CNS): > 54.4 µM
- TGI (CCRF-CEM leukemia): 6.32 µM
- TGI (SN12C renal): > 87.4 µM
- TGI (T-47D breast): 62.1 µM

SMILES: O=C1CC(Br)c2c(Cl)sc(Cl)c21 (stereo not drawn)
- TGI (786-0 renal): 8.91 µM
- TGI (NCI/ADR-RES ovarian): 90.1 µM
- TGI (U251 CNS): 10.4 µM
- TGI (CCRF-CEM leukemia): 2.15 µM
- TGI (SN12C renal): 30.6 µM
- TGI (T-47D breast): 16 µM
